Measurements reported in US8183252B2, “Heterocyclic aspartyl protease inhibitors” (Schering Corporation, priority 2007, dated 2012).

The compounds below were run against T1, human BACE1 (sproBACE1) (Homo sapiens, UniProt P56817) (assay: BACE-1 Peptide Hydrolysis Assay (HTRF)). Details: read-out: BACE-1 Ki.
T1 construct: sBACE1, corresponding to amino acids 1-454; made in house; host or cells: Sf9 insect cells (baculovirus), secreted into the medium
Assay type: biochemical
Procedure, shortened: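 Secreted sBACE1-myc/His from baculovirus-infected sf9 cells, purified on Q-sepharose then Ni-NTA. Substrate-initiated reactions ran 3 hr at 30° C., then were stopped with KF buffer (pH 8.0) containing SA-XL665 for HTRF read-out. EC50 was fitted by sigmoidal dose-response to percent change in ratio.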

T1 sequence (P56817 22-454): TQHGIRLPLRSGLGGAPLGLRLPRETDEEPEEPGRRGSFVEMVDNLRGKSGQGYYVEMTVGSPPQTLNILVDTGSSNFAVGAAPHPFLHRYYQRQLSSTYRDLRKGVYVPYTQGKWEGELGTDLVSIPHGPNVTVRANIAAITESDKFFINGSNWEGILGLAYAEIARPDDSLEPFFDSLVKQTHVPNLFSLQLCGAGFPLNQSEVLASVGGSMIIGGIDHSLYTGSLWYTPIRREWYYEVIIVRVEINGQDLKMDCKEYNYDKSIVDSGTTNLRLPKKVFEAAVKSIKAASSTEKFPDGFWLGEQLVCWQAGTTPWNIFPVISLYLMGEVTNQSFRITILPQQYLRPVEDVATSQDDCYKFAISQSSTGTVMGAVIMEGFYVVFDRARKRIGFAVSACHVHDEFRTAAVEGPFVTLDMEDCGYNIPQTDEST

Ki [µM]	SMILES
< 5	CN1C(=N)NC(C)(c2cccc(-c3cc(Cl)ccc3CNS(=O)(=O)c3ccccc3)c2)C1=O (stereo not shown) [benzenesulfonamide, N-[[5-chloro-3′-(2-imino-1,4-dimethyl-5-oxo-4-imidazolidinyl)[1,1′-biphenyl]-2-yl]methyl]-]
< 5	CCS(=O)(=O)Nc1ccc(CN2C(=N)NC(c3ccccc3)(c3ccccc3)C2=O)cc1 [ethanesulfonamide, N-[4-[(2-imino-5-oxo-4,4-diphenyl-1-imidazolidinyl)methyl]phenyl]-]
< 5	CCCCS(=O)(=O)N1CCC(CN2C(=N)NC(c3ccccc3)(c3ccccc3)C2=O)CC1 [piperidine, 1-(butylsulfonyl)-4-[(2-imino-5-oxo-4,4-diphenyl-1-imidazolidinyl)methyl]-]
< 5	CCS(=O)(=O)N1CCC(CN2C(=N)NC(c3ccccc3)(c3ccccc3)C2=O)CC1 [piperidine, 1-(ethylsulfonyl)-4-[(2-imino-5-oxo-4,4-diphenyl-1-imidazolidinyl)methyl]-]
< 5	N=C1NC(c2ccccc2)(c2ccccc2)C(=O)N1CC1CCN(S(=O)(=O)c2ccc(F)c(Cl)c2)CC1 [piperidine, 1-[(3-chloro-4-fluorophenyl)sulfonyl]-4-[(2-imino-5-oxo-4,4-diphenyl-1-imidazolidinyl)methyl]-]
< 5	N=C1NC(c2ccccc2)(c2ccccc2)C(=O)N1CC1CCN(S(=O)(=O)c2ccc3ccccc3c2)CC1 [piperidine, 4-[(2-imino-5-oxo-4,4-diphenyl-1-imidazolidinyl)methyl]-1-(2-naphthalenylsulfonyl)-]
< 5	CS(=O)(=O)N1CCC(CN2C(=N)NC(c3ccccc3)(c3ccccc3)C2=O)CC1 [piperidine, 4-[(2-imino-5-oxo-4,4-diphenyl-1-imidazolidinyl)methyl]-1-(methylsulfonyl)-]
< 5	N=C1NC(c2ccccc2)(c2ccccc2)C(=O)N1CC1CCN(S(=O)(=O)c2ccccc2)CC1 [piperidine, 4-[(2-imino-5-oxo-4,4-diphenyl-1-imidazolidinyl)methyl]-1-(phenylsulfonyl)-]
< 5	CCCS(=O)(=O)N1CCC(CN2C(=N)NC(c3ccccc3)(c3ccccc3)C2=O)CC1 [piperidine, 4-[(2-imino-5-oxo-4,4-diphenyl-1-imidazolidinyl)methyl]-1-(propylsulfonyl)-]
< 5	COc1ccc(S(=O)(=O)N2CCC(CN3C(=N)NC(c4ccccc4)(c4ccccc4)C3=O)CC2)cc1 [piperidine, 4-[(2-imino-5-oxo-4,4-diphenyl-1-imidazolidinyl)methyl]-1-[(4-methoxyphenyl)sulfonyl]-]
< 5	N=C1NC(c2ccccc2)(c2ccccc2)C(=O)N1CC1CCN(S(=O)(=O)c2ccc(OC(F)(F)F)cc2)CC1 [piperidine, 4-[(2-imino-5-oxo-4,4-diphenyl-1-imidazolidinyl)methyl]-1-[[4-(trifluoromethoxy)phenyl]sulfonyl]-]
< 5	CN1C(=N)NC(C)(c2cccc(-c3cc(Cl)ccc3CNC(=O)Nc3ccc(Cl)cc3)c2)C1=O (stereo not shown) [urea, N-[[5-chloro-3′-(2-imino-1,4-dimethyl-5-oxo-4-imidazolidinyl)[1,1′-biphenyl]-2-yl]methyl]-N′-(4-chlorophenyl)-]
< 5	CN1C(=N)NC(C)(c2cccc(-c3cc(Cl)ccc3CNC(=O)Nc3ccccc3)c2)C1=O (stereo not shown) [urea, N-[[5-chloro-3′-(2-imino-1,4-dimethyl-5-oxo-4-imidazolidinyl)[1,1′-biphenyl]-2-yl]methyl]-N′-phenyl-]
